Measured values published in patent publication EP0511381B1, “SQUARYLIUM AND CROCONYLIUM DYES” (POLAROID CORPORATION, priority 1990, dated 1992).
Structures can show the parent of a compound that is named as a salt.

Columns and labels:
Format in all cases: physicochemical
[1] = Solubility in dichloromethane (saturated solution); conditions: weight percentage of dye to solvent in a saturated solution
From the text: This Example illustrates the high solubility in halogenated organic solvents which can be achieved by dyes of the present invention, as compared with similar dyes which bear 2-phenyl or -substituted phenyl groups.

[2] = Photochemical stability of dye in polymer films
Protocol: This Example illustrates the photochemical stability of a dye of the present invention in a polymer matrix.
20 mg of Dye B prepared as described in Example 5 above and 100 mg of a test polymer (polyvinylbutyral or polyacrylate) were dissolved in dichloromethane, and the resultant solution was coated onto PET transparent base using a #4 coating rod. The maximum absorbance of the resultant film was measured before and after exposure of the coated side of the base to irradiation with a fluorescent lamp (560 ft. candles) for 24 or 67 hours. The results are shown in Table 2 below (with the absorbance after irradiation in parentheses).

[3] = Absorption and thermal stability of dye in polymer films; design: λmax: unit not given here; conditions: for Width: full width of infra-red absorption peak at half maximum
Protocol: This Example illustrates the high absorptions which can be achieved by a dye of the present invention when dispersed in a polymer, and the thermal stability of such dispersed polymer.
The polymers tested in this Example were polystyrene/acrylonitrile, polyvinylbutyral and polyvinylformal polymers. 10.0 mg of the dye (hereinafter referred to as "Dye B") prepared as described in Example 5 above was dissolved in 2.0 mL of a 2.5% w/v solution of each polymer in dichloromethane, and the resultant solution was coated onto a transparent 4 mil polyvinyl chloride base using a No. 10 coating rod. The resultant film was oven dried at 80°C for 10 minutes. After the film had cooled, the wavelength of maximum infra-red absorption (λmax), the absorbance at λmax (Amax), and the full width of the infra-red absorption peak at half maximum were measured. The film samples were then stored in the dark for 15 days at 80°C, and the same absorption parameters were remeasured to give the data shown in Table 1, in which initial values are shown, with values after heating in parentheses.

[4] = Storage stability of thermal imaging medium containing the dye; conditions: imaging medium (dye, leuco dye LD3, polyurethane Estane 5715 binder) stored at 60°C for 4 days
Protocol: A coating fluid was prepared by combining the infra-red dye of Formula IR4 above (prepared in Example 12 above, 2.6 mg) with a leuco dye of Formula LD3 above (110 mg) and a polymeric binder (polyurethane Estane 5715, supplied by B.F. Goodrich, 0.73 mL of a 15% solution in acetone). The fluid was diluted with acetone (0.157 mL), then coated onto a 4 mil (101 »m) transparent poly(ethylene terephthalate) base using a #12 coating rod. The film so formed was laminated at 180°F […] and 60 psi (0.4 MPa) to a second sheet of 4 mil (101 »m) poly(ethylene terephthalate) which had been coated with Joncryl 138 to a thickness of approximately 2 »m.

[5] = Polyvinylbutyral film, after 15 days at 80°C in the dark
[6] = Polyvinylbutyral film, initial value
[7] = Polyvinylformal film, after 15 days at 80°C in the dark
[8] = Polyvinylformal film, initial value
[9] = SAN (polystyrene/acrylonitrile) film, after 15 days at 80°C in the dark
[10] = SAN (polystyrene/acrylonitrile) film, initial value

CCN(CC)c1ccc2c(c1)OC(C1CCCCC1)=CC2=CC1=C([O-])C(=Cc2cc(C3CCCCC3)[o+]c3cc(N(CC)CC)ccc23)C1=O [Dye F, 4-[[3-[2-cyclohexyl-7-diethylamino-(benz[b]-4H-pyran-4-ylidene)methyl]-2-hydroxy-4-oxo-2-cyclobuten-1-ylidene]methyl]-2-cyclohexyl-7-diethylaminobenz[b]pyrylium hydroxide inner salt dye]
Solubility [1]: 0.4 wt. %

CCN(CC)c1ccc2c(c1)OC(c1ccccc1)=CC2=CC1=C([O-])C(=Cc2cc(-c3ccccc3)[o+]c3cc(N(CC)CC)ccc23)C1=O [Control Dye y, reference compound]
Solubility [1]: 0.02 wt. %

CCN(CC)c1ccc2c(c1)OC(C(C)(C)C)=CC2=CC1=C([O-])C(=Cc2cc(C(C)(C)C)[o+]c3cc(N(CC)CC)ccc23)C1=O [Dye B]
Amax ([2]; Polyacrylate film, after 24 hours irradiation with fluorescent lamp (560 ft. candles)): 0.78 | Amax ([2]; Polyacrylate film, before irradiation): 0.84 | Amax ([2]; Polyvinylbutyral film, after 67 hours irradiation with fluorescent lamp (560 ft. candles)): 1.018 | Amax ([2]; Polyvinylbutyral film, before irradiation): 1.225 | Solubility [1]: 11.5 wt. % | Amax [3, 5]: 2.16 | λmax [3, 5]: 812 | Amax [3, 6]: 2.99 | λmax [3, 6]: 815 | Amax [3, 7]: 2.64 | λmax [3, 7]: 820 (820) | Amax [3, 8]: 2.62 | λmax [3, 8]: 820 (820) | Amax [3, 9]: 2.68 | λmax [3, 9]: 826 (826) | Amax [3, 10]: 2.59 | λmax [3, 10]: 826 (826) | Width [3, 5]: 79 nm | Width [3, 6]: 70 nm | Width [3, 7]: 80 (80) nm | Width [3, 8]: 80 (80) nm | Width ([3]; SAN film, after 15 days at 80°C in the dark): 74 (74) nm | Width ([3]; SAN film, initial value): 74 (74) nm

CCC(CC)COc1ccc2c(c1)OC(C(C)(C)C)=CC2=CC1=C([O-])C(=Cc2cc(C(C)(C)C)[o+]c3cc(N(CC)CC)ccc23)C1=O [IR4, 4-[[3-[[7-diethylamino-2-[1,1-dimethylethyl]benz[b]-4H-pyran-4-ylidene]methyl]-2-hydroxy-4-oxo-2-cyclobuten-1-ylidene]methyl]-7-[2-ethylbut-1-oxy]-2-[1,1-dimethylethyl]benz[b]pyrylium hydroxide inner salt dye]
loss of near infra-red absorption [4]: 2.4%

CCN(CC)c1ccc2c(c1)OC(c1ccc(C)cc1C)=CC2=CC1=C([O-])C(=Cc2cc(-c3ccc(C)cc3C)[o+]c3cc(N(CC)CC)ccc23)C1=O [Control Dye z, reference compound]
Solubility [1]: 0.1 wt. %
